From US20250127689A1, “METHOD OF STIMULATING DENTIN FORMATION WITH HYDROXY-SUBSTITUTED AZOBENZENE MATERIALS” (The Regents of the University of Colorado, a body corporate, priority 2022, published 2025) come the findings set out here.

In data set [1] the test system is exposed dental pulp of maxillary first molar. Put plainly: Pulp exposure (class I cavity) in maxillary first molar, microCT of maxilla six weeks after treatment. The class given is in vivo, C57BL/6J mice. The note with it: mice, six weeks after dental procedure; longitudinal section, cured restorative removed before imaging. How it is done: (§1) In order to test this hypothesis, a class I cavity extending into the dentin and almost to the pulp was prepared on the occlusal surface of the maxillary first molar after anesthesia in five to six week old C57BL/6J mice. The cavity was prepared using a 0.3-0.5 millimeter diameter carbide bur. An endodontic hand file with a tip diameter of 0.06-0.10 millimeter was used to create a mechanical break in the thin dentin overlying the dental pulp, thereby creating a cavity that included exposed dentin and exposed pulp.
For the control group of mice, after hemostasis, a one-step, dual-cure, self-etching bonding agent (SCOTCHBOND™ Universal Adhesive; 3M ESPE, St. Paul, Minnesota, USA) was applied to exposed dentin according to the manufacturer's instructions and cured for 20-40 seconds using a dental curing light operated at 420-480 nanometers and 1200-2000 milliwatts/centimeter^2. ProRoot™ MTA (Mineral Trioxide Aggregate) root canal repair material (Dentsply Sirona, Tulsa Dental Specialties, Johnson City, Tennessee, USA) was prepared according to manufacturer's instructions by mixing powder and liquid components in equal proportions to form a dough. The dough was packed over the exposed pulp according to manufacturer's instructions. […]

Data set [2] has the same test system. Briefly: Pulp exposure (class I cavity) in maxillary first molar, H&E histology of sections four weeks after treatment. The class given is in vivo, C57BL/6J mice. The note with it: mice. As for the experimental part: as §1
For the control group of mice, after hemostasis, a one-step, dual-cure, self-etching bonding agent (SCOTCHBOND™ Universal Adhesive; 3M ESPE, St. Paul, Minnesota, USA) was applied to exposed dentin according to the manufacturer's instructions and cured for 20-40 seconds using a dental curing light operated at 420-480 nanometers and 1200-2000 milliwatts/centimeter^2. ProRoot™ MTA (Mineral Trioxide Aggregate) root canal repair material (Dentsply Sirona, Tulsa Dental Specialties, Johnson City, Tennessee, USA) was prepared according to manufacturer's instructions by mixing powder and liquid components in equal proportions to form a dough. The dough was packed over the exposed pulp according to manufacturer's instructions. The cavity was then sealed with FILTEK™ Supreme Ultra Universal Restorative (3M ESPE, St. Paul, Minnesota, USA), which was applied to the cured adhesive and the root canal repair material, then cured for 20-40 seconds using a dental curing light operated at 420-480 nanometers and 1200-2000 milliwatts/centimeter^2.
For the test group of mice, after hemostasis, a one-step, dual-cure, self-etching bonding agent (SCOTCHBOND™ Universal Adhesive; 3M ESPE, St. Paul, Minnesota, USA) was applied to exposed dentin according to the manufacturer's instructions and cured for 20-40 seconds using a dental curing light operated at 420-480 nanometers and 1200-2000 milliwatts/centimeter^2. Prior to being applied, the AHA solution was divided into two parts of equal volume to mix in the photoinitiators and the redox (self-cure) initiator components. […]

SMILES strings stand for the structures.

As for `C=CC(=O)Oc1ccccc1N=Nc1ccccc1O` [AHA, 2-Acryloyloxy-2′-hydroxy-azobenzene], the “formation of a calcified dentinal bridge at the pulp exposure site (microCT)” value in data set [1] is recorded as “pulp exposure site closed by a calcified dentinal bridge”. Further, the “appearance of gingiva around the site of application (inflammation, dysplasia)” value in data set [2] is “healthy without any signs of inflammation or dysplasia”. Moreover, the “formation of dentinal bridge at the site of pulp exposure (H&E stained sections)” value in data set [2] (2.5 to 12.5 micrograms AHA per restoration applied to exposed pulp, light-cured under FILTEK restorative) is listed as “closed by formation of a dentinal bridge generated by reparative dentin formation”. Besides, in data set [2] (H&E sections), the “state of dental pulp by microscopy (vitality, inflammation, dysplastic changes)” value was “vital pulp without any evidence of chronic or acute inflammation or dysplastic changes”.
